Measured values taken from patent US20260174682A1, “GAMMA-AMINOBUTYRIC ACID DERIVATIVE COMPRISING POLYCYCLIC STRUCTURE, METHOD FOR PREPARING SAME, AND USE THEREOF” (ZHONGSHAN INSTITUTE FOR DRUG DISCOVERY, SIMM, CAS., priority 2022, published 2026).
Marks after values point to notes of the source that are not given here.

Legend:
[1] = test system: mouse 6-Hz psychomotor seizure model; test: Antiepileptic effect in mouse 6-Hz psychomotor seizure model; format: in vivo; settings: 6-Hz model, C57BL/6 mice, gavage
Protocol: A negative vehicle control group, a positive drug control group (pregabalin and gabapentin) and a test group of the compounds of the present application were set. Male C57BL/6 mice with a body weight of 20±2 g were selected. […] After fasted for 12 h, the mice were administered the compounds of the present application or the control drugs, and then subjected to 6-Hz electrical stimulation to induce epilepsy seizure behaviors after a certain time interval (2 h for pregabalin, 1 h for gabapentin, 1 h for levetiracetam, and 3 h for the compounds of the present application). In an induction model, when the stimulation was performed with a Model 4100 stimulator (A-M Systems, the United States), rear necks of the mice were immobilized by hands on a feeding cage, a corneal electrode was moisten with normal saline and allowed to gently contact bilateral corneas of the mice, the electrical stimulator was trod by a foot to give the mice the electrical stimulation with a stimulation parameter of 6-Hz, a one-way square wave of 32 mA, a wave width of 0.2 ms and a stimulation duration of 3 sec, and timing was performed with a stopwatch during the stimulation. After the electrical stimulation was completed, the mice with the seizure behaviors lasting for less than 7 sec were regarded as being protected by the drugs, and the mice with the seizure behaviors lasting for more than 7 sec were regarded as being not protected from the epilepsy by the drugs. Response situations of the animals were observed and recorded, and obtained data were counted to calculate protection rates of the compounds.
Statistical method: The protection rates of different administration groups were separately compared with that of the vehicle control group to carry out a Fisher's exact test.

motor functions of rats = test: Rotarod test of impact on motor functions of rats; settings: male SD rats; for impact on rotarod behaviors of the rats: gavage 10 mg/kg (calculated by free base); for impact on rotarod behaviors of the rats / impact on rotarod behaviors of the rats (impacted proportion): FIG. 7; for impact on rotarod behaviors of the rats (impacted proportion): gavage 30 mg/kg (calculated by free base)
Protocol: A negative vehicle control, a positive drug control group (pregabalin, (PGB), 10 mg/kg, 30 mg/kg) were set, and a test group (including (+)—I-3 p-toluenesulfonate at 10 mg/kg (calculated by free base), (+)—I-4 p-toluenesulfonate at 10 mg/kg (calculated by free base), (+)—I-3 p-toluenesulfonate at 30 mg/kg (calculated by free base) and (+)—I-4 p-toluenesulfonate at 30 mg/kg (calculated by free base)) were set. Male SD rats with the body weight of 200-250 g were selected, with 10 animals in each administration group. AYLS-31A fatigue rota-rod (Shanghai Xinruan Information Technology Co., Ltd.) was used as rotarod test equipment, and a rotation speed was set at a constant speed of 6 rpm. A screening test was carried out on the first day. Tail tips of the rats were pinched, placed on the rotarod, and released the same after the rats maintained balance on the rotarod and moved along with the rotarod. The falling number of the rats within the next 1 min was recorded and counted. The rats that fell for 3 times within 1 min were excluded, which were not used for subsequent drug evaluation. A drug evaluation test was carried out on the second day. The rats were fasted for 8 h before the test, then a rotarod test was carried out once to serve as a time point (BL) before administration, and then administration was performed by gavage. […] The falling number of the rats within 1 min was recorded and counted. The rats falling for 3 times within one min were regarded as having “motor function impairments” caused by drug toxicity. The “motor function impairment” degree (rotarod fall) of each administration group at a specific time point was calculated as a proportion of a number of the animals with “motor function impairments” in the group to a total number of the animals in the group.
The rotarod test is a classic test for measuring the damage of compounds to motor functions of animals.

[2] = test system: mouse maximum electroshock model (MES); test: Antiepileptic effect in mouse maximum electroshock model (MES); format: in vivo; settings: gavage; for Number of animals with tonic straightening of hind limbs/total number of detected animals / Protection rate (%): MES, ICR mice
Protocol: A negative vehicle control group, a positive drug control group (pregabalin and gabapentin) and a test group of the compounds of the present application were set. Male ICR mice with a body weight of […] were selected. […] After fasted for 12 h, the mice were administered the compounds of the present application or the control drugs according to the body weight, and then subjected to electrical stimulation to induce generalized tonic-clonic seizure behaviors after a certain lime interval (2 h for pregabalin, 1 h for gabapentin, and 3 h for the compounds of the present application). A YLS-9A electrophysiological stimulator (Shanghai Xinruan Information Technology Co., Ltd.) was used in an induction model, and parameters were set as follows: configuration 8, stimulation voltage 160 V, wave number 90. When the electrical stimulation was performed, ears on both sides of the mice were firstly wiped with normal saline and then given the electrical stimulation for 1 lime with ear clip electrodes. Tonic straightening of hind limbs was used as a standard for epilepsy seizures. The animals with the tonic straightening of hind limbs were regarded as not being protected by the drugs, and the animals without the tonic straightening of hind limbs were regarded as being protected by the drugs. Response situations of the animals were observed and recorded, and obtained data were counted to calculate protection rates of the compounds.
Median effective doses (ED50) of the compounds to be tested for animal protection were calculated by a least square method (Graphpad Prism 5) with an administration dose-protection rate curve.

[3] = dose 60 mg/kg (calculated by free base)
[4] = dose 3 mg/kg (own compounds calculated by free base)
[5] = dose 6 mg/kg (own compounds calculated by free base)
[6] = dose 10 mg/kg (own compounds calculated by free base)
[7] = dose 18 mg/kg (own compounds calculated by free base)
[8] = dose 30 mg/kg (own compounds calculated by free base)
[9] = dose 60 mg/kg (own compounds calculated by free base)

Cc1ccc(S(=O)(=O)O)cc1.NCC1(CC(=O)O)CC2C3C=CC(C3)C21 (single isomer, unassigned; (+)) [(+)-I-4 p-toluenesulfonate]
Number of animals with clonic seizures/total number [1, 3]: 2/4 | Protection rate (%) [1, 3]: 50.0 * % | impact on rotarod behaviors of the rats (motor functions of rats): no significant impact | impact on rotarod behaviors of the rats (impacted proportion) (motor functions of rats): smaller than that in the PGB group | Median effective dose (ED50) for animal protection ([2]; MES mice, least square fit of administration dose-protection rate curve): 21.51 mg/kg | Number of animals with tonic straightening of hind limbs/total number of detected animals [2, 4]: 7/8 | Protection rate (%) [2, 4]: 12.5% | Number of animals with tonic straightening of hind limbs/total number of detected animals [2, 5]: 6/8 | Protection rate (%) [2, 5]: 25% | Number of animals with tonic straightening of hind limbs/total number of detected animals [2, 6]: 7/8 | Protection rate (%) [2, 6]: 12.5% | Number of animals with tonic straightening of hind limbs/total number of detected animals [2, 7]: 7/12 | Protection rate (%) [2, 7]: 41.7% | Number of animals with tonic straightening of hind limbs/total number of detected animals [2, 8]: 3/8 | Protection rate (%) [2, 8]: 62.5% | Number of animals with tonic straightening of hind limbs/total number of detected animals [2, 9]: 1/6 | Protection rate (%) [2, 9]: 83.3%

CC(C)C[C@H](CN)CC(=O)O [Pregabalin]
Number of animals with clonic seizures/total number ([1]; dose 30 mg/kg): 1/6** | Protection rate (%) ([1]; dose 30 mg/kg): 83.3 *** % | impact on rotarod behaviors of the rats (motor functions of rats): no significant impact | time of maximum impact on the rotarod behaviors after the administration (motor functions of rats; gavage 30 mg/kg): 4 h | impact on rotarod behaviors of the rats (impacted proportion) (motor functions of rats): obvious toxic responses | Number of animals with tonic straightening of hind limbs/total number of detected animals [2, 4]: 9/12 | Protection rate (%) [2, 4]: 25% | Number of animals with tonic straightening of hind limbs/total number of detected animals [2, 5]: 10/12 | Protection rate (%) [2, 5]: 16.67% | Number of animals with tonic straightening of hind limbs/total number of detected animals [2, 6]: 6/12 | Protection rate (%) [2, 6]: 50% | Number of animals with tonic straightening of hind limbs/total number of detected animals [2, 7]: 5/12 | Protection rate (%) [2, 7]: 58.33% | Number of animals with tonic straightening of hind limbs/total number of detected animals [2, 8]: 4/20 | Protection rate (%) [2, 8]: 80% | Number of animals with tonic straightening of hind limbs/total number of detected animals [2, 9]: 1/12 | Protection rate (%) [2, 9]: 91.66% | ED50 ([2]; Mus musculus, po, MES mice, least square fit of administration dose-protection rate curve, read-out: Median effective dose (ED50) for animal protection): 12 mg/kg
